Experimental data from US8163727B2, “Biphenyloxyacetic acid derivatives for the treatment of respiratory disease” (AstraZeneca AB, priority 2004, dated 2012).

Columns and labels:
CRTh2 = molecular target: T1, CRTh2 (Homo sapiens, UniProt Q9Y5Y4); assay: Ligand binding assay ([3H]PGD2 SPA on membranes of HEK cells expressing rhCRTh2/Gα16); conditions: [3H]PGD2 displacement, HEK cell membranes containing CRTh2; read-out: pIC50 value (converted)
T1 construct: expressed in transfected cells; host or cells: HEK cells (membrane preparation)
T1 sequence (Q9Y5Y4 1-395): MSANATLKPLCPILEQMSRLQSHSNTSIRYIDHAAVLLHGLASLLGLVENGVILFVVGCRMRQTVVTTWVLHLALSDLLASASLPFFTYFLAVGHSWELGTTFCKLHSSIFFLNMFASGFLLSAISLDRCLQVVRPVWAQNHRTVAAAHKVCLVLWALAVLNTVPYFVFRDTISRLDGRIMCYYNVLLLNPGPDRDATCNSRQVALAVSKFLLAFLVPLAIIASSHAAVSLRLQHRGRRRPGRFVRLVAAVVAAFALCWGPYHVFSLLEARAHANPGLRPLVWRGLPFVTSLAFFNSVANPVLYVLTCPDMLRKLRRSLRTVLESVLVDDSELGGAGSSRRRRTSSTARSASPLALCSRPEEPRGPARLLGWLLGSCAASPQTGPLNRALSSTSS
Method: [^3H]PGD2 was purchased from Perkin Elmer Life Sciences with a specific activity of 100-210 Ci/mmol. All other chemicals were of analytical grade.
HEK cells expressing rhCRTh2/Gα16 were routinely maintained in DMEM containing 10% Foetal Bovine Serum (HyClone), 1 mg/ml geneticin, 2 mM L-glutamine and 1% non-essential amino acids. For the preparation of membranes, the adherent transfected HEKcells were grown to confluence in two layer tissue culture factories (Fisher, catalogue number TKT-170-070E). Maximal levels of receptor expression were induced by addition of […] sodium butyrate for the last 18 hours of culture. The adherent cells were washed once with phosphate buffered saline (PBS, 50 ml per cell factory) and detached by the addition of 50 ml per cell factory of ice-cold membrane homogenisation buffer [20 mM HEPES (pH 7.4), 0.1 mM dithiothreitol, 1 mM EDTA, 0.1 mM phenyl methyl sulphonyl fluoride and 100 μg/ml bacitracin]. Cells were pelleted by centrifugation at 220×g for 10 minutes at 4° C., re-suspended in half the original volume of fresh membrane homogenisation buffer and disrupted using a Polytron homogeniser for 2×20 second bursts keeping the tube in ice at all times. […] The final pellet was re-suspended in 4 ml of membrane homogenisation buffer per cell factory used and the protein content determined. […]
All assays were performed in Corning clear bottomed, white 96-well NBS plates (Fisher). […] (The optimum coating concentrations were determined for each batch of membranes) The beads were pelleted by centrifugation (800×g for 7 minutes at 4° C.), washed once with assay buffer (50 mM HEPES pH 7.4 containing 5 mM magnesium chloride) and finally re-suspended in assay buffer at a bead concentration of 10 mg/ml. […]
Compounds and DK-PGD2 were dissolved in DMSO and diluted in the same solvent to 100× the required final concentration. […] The assay plate was incubated at room temperature for 2 hours and counted on a Wallac Microbeta liquid scintillation counter (1 minute per well).

Compound	IC50 (CRTh2)	melting point
C[C@H](Oc1ccc(Cl)cc1-c1cc(F)c(S(=O)(=O)N2CCOCC2)cc1F)C(=O)O [Example 5]	1.78 nM	
CC(C)S(=O)(=O)c1ccc(-c2cc(C(F)(F)F)ccc2OCC(=O)O)cc1F [Example 6, [[3′-Fluoro-4′-[(1-methylethyl)sulfonyl]-5-(trifluoromethyl)[1,1′-biphenyl]-2-yl]oxy]acetic acid]		170 to 171 °C
CCS(=O)(=O)c1ccc(-c2cc(C(F)(F)F)ccc2OCC(=O)O)cc1C(F)(F)F [Example 9, [[4′-(Ethylsulfonyl)-3′,5-bis(trifluoromethyl)[1,1′-biphenyl]-2-yl]oxy]acetic acid]		174 to 175 °C
CCS(=O)(=O)c1ccc(-c2cc(C(F)(F)F)ccc2O[C@@H](C)C(=O)O)cc1C(F)(F)F [Example 10, (2S)-2-[[4′-(Ethylsulfonyl)-3′,5-bis(trifluoromethyl)[1,1′-biphenyl]-2-yl]oxy]propanoic acid]		124 to 126 °C
O=C(O)COc1ccc(Cl)cc1-c1ccc(S(=O)(=O)N2CCOCC2)c(C(F)(F)F)c1 [Example 11]	35.5 nM	208 to 209 °C
C[C@H](Oc1ccc(Cl)cc1-c1ccc(S(=O)(=O)N2CCOCC2)c(C(F)(F)F)c1)C(=O)O [Example 12, (2S)-2-[[5-Chloro-4′-(4-morpholinylsulfonyl)-3′-(trifluoromethyl)[1,1′-biphenyl]-2-yl]oxy]propanoic acid]		148 to 149 °C
O=C(O)COc1ccc(Cl)cc1-c1ccc(C(=O)N2CCCC2)c(C(F)(F)F)c1 [Example 13, [[5-Chloro-4′(1-pyrrolidinylcarbonyl)-3′-(trifluoromethyl)[1,1′-biphenyl]-2-yl]oxy]-acetic acid]	7.08 nM	197 to 198 °C
C[C@H](Oc1ccc(Cl)cc1-c1ccc(C(=O)N2CCCC2)c(C(F)(F)F)c1)C(=O)O [Example 14, (2S)-2-[[5-Chloro-4′-(1-pyrrolidinylcarbonyl)-3′-(trifluoromethyl)[1,1′-biphenyl]-2-yl]oxy]propanoic acid]		164 to 165 °C
C[C@H](Oc1ccc(Cl)cc1-c1ccc(S(C)(=O)=O)c(C(F)(F)F)c1)C(=O)O [Example 16, (2S)-2-[[5-Chloro-4′-(methylsulfonyl)-(3′-trifluoromethyl)-[1,1′-biphenyl]-2-yl]oxy]propanoic acid]		77 to 79 °C
